Test results: PMC9529548 (Computational and Structural Biotechnology Journal, 2022)

System: T1, E. coli transhydrogenase (PntA (α) and PntB (β))
T1 construct: full-length wild-type holoenzyme from E. coli membranes, DDM-solubilised, Ni-NTA (tag not described) and SEC; dimer of two identical protomers (alpha2beta2)
Assay: spectrophotometric reduction of APAD+ by NADPH, […] nm
Assay type: biochemical, Escherichia coli
Conditions: 100 uM APAD+, 100 uM NADPH, 25 mM HEPES pH 7.5, 50 mM KCl, asolectin, 0.1% DDM, 37 °C; reverse reaction

T1 sequence (P0AB67 whole entry): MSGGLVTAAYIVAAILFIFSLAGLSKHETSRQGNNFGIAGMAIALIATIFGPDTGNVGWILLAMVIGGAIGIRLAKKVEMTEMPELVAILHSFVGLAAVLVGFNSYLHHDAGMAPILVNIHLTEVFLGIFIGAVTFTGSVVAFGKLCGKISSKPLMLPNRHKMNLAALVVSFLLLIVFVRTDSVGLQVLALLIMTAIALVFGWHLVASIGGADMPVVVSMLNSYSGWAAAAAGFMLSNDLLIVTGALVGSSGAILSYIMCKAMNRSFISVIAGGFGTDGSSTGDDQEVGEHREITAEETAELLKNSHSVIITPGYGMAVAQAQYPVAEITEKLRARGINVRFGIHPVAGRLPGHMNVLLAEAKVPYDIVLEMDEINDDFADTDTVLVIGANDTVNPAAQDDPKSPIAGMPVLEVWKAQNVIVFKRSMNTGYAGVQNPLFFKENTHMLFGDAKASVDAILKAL
T1 sequence (P07001 whole entry, further chain): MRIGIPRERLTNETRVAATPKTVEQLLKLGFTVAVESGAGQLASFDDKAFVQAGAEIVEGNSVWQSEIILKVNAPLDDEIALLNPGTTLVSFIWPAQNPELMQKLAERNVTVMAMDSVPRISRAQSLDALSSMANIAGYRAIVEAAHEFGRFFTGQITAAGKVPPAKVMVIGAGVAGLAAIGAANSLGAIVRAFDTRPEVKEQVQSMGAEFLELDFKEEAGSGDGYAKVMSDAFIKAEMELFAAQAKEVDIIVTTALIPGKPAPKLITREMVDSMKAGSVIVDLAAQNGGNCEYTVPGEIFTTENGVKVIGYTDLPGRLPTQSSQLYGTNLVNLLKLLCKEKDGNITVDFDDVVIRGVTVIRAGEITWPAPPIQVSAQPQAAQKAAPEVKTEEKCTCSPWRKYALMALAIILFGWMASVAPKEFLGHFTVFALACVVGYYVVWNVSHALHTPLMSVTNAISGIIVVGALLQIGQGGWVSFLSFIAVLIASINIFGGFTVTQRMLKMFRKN

CC(=O)c1ccc[n+]([C@@H]2O[C@H](COP(=O)(O)OP(=O)(O)OC[C@H]3O[C@@H](n4cnc5c(N)ncnc54)[C@H](O)[C@@H]3O)[C@@H](O)[C@H]2O)c1 [APAD^+]
spectrophotometric reduction of APAD+ by NADPH, 375 nm: reverse transhydrogenase activity of the protein in DDM was measured using the reduction of APAD^+
